Laboratory results as given in patent US6716809B1, “Mage-A3 peptides presented by HLA class molecules” (priority 1997, dated 2004).

Tests used:
7002 CD4+ clone 2 = assay: IFN-γ production by CD4+ clone 2 stimulated with peptide- or protein-pulsed EBV-B cells; type: cell-based, human; details: for recognition of short peptide by clone 2: conclusion from Table V; for IFN-γ production by clone 2: HLA-DR13 EBV-B cells
Procedure: (§1) In order to confirm the efficacy of this protocol, dendritic cells were fed with the MAGE-3 protein, using conditions described above, to stimulate autologous CD4^+ T lymphocytes from hemochromatosis patient LB1158 or from melanoma patient 7002. After four restimulations, the specific production of IFN-γ by an aliquot of each of the microcultures stimulated with the autologous EBV-B cells loaded with MAGE-A3 were tested on day 35 for patient LB1158 and day 37 for patient 7002. For each individual, one positive microculture was cloned using autologous EBV-B cells as stimulating cells, either retrotransduced with MFG Ii MAGE-A3 for LB1158, or fed with protein MAGE-A3 for patient 7002. […] Specifically, autologous EBV-B cells were incubated for 20 h in the presence of 20 μg/ml of recombinant His-MAGE-A3 protein. Clone 22 (2500 cells) was incubated overnight with 5000 MAGE-A3 loaded EBV-B cells in round botton microwells in the presence or absence of monoclonal antibodies which recognize HLA-A,B,C (W6/32) or HLA-DR (2B6). IFN-γ secretion was measured after 20 h by ELISA (FIG. 15A).
(§2) Peptides corresponding to parts of MAGE-A3 (e.g., MAGE107-122, MAGE111-126, MAGE115-130, MAGE119-134) were tested for recognition by clone 2 and 22. HLA-DR13 EBV-B cells were pulsed for 2 h with different concentrations of these peptides. Clones 2 and 37 (2500 cells) were incubated with 5000 peptide pulsed cells in round-bottomed microwells for 20 h and assayed for IFN-γ production.
(§3) Autologous or allogeneic EBV-B cells were pulsed for 2 h with 1 μg/ml MAGE-A3119-134 peptide, and then washed. Clones 2 or 22 were incubated with 5000 peptide-pulsed EBV-B cells in round-bottomed microwells for 20 h and the clones' reactivity to the EBV-B cells was measured by ELISA as IFN-γ secretion. Experiments were performed in triplicate.
(§4) Unlike HLA-class I-restricted peptides, class II-restricted peptides usually vary in length and tolerate extensions at both the amino and carboxy termini, because they are not fixed by their ends in the groove. It is therefore difficult to define precisely the length of the antigenic peptide. Therefore a large number of MAGE-A3 peptides were tested at different concentrations (Tables IV and V). […] 2500 cells of clone 37 were then cocultured for 20 h in round-bottomed microwells with 5000 peptide-pulsed cells. IFN-γ released in the supernatant of the cocultures was measured in an ELISA assay. The experiments were performed in triplicate. […] Clones 2 and 22 (2500 cells) were then cocultured for 20 h in round-bottomed microwells with 5000 peptide-pulsed cells. IFN-γ released in the supernatant of the cocultures was measured in an ELISA assay. The experiments was performed twice in duplicates.

LB1158 CD4+ clone 22 = assay: IFN-γ production by CD4+ clone 22 stimulated with peptide- or protein-pulsed EBV-B cells; type: cell-based, human; details: for recognition of short peptide by clone 22: conclusion from Table V; for IFN-γ production by clone 22: HLA-DR13 EBV-B cells
Procedure: as §1, §2, §3, §4

[1] = peptide concentration 100 ng/ml
[2] = peptide concentration 300 ng/ml
[3] = peptide concentration 1000 ng/ml

Row | Sequence | recognition of short peptide by clone 2 (7002 CD4+ clone 2) | IFN-γ production by clone 2 (7002 CD4+ clone 2; peptide concentration 1 ng/ml) [pg/mL] | IFN-γ production by clone 2 (7002 CD4+ clone 2; peptide concentration 3 ng/ml) [pg/mL] | IFN-γ production by clone 2 (7002 CD4+ clone 2; peptide concentration 10 ng/ml) [pg/mL] | IFN-γ production by clone 2 (7002 CD4+ clone 2; peptide concentration 30 ng/ml) [pg/mL] | IFN-γ production by clone 2 (7002 CD4+ clone 2; [1]) [pg/mL] | IFN-γ production by clone 2 (7002 CD4+ clone 2; [2]) [pg/mL] | IFN-γ production by clone 2 (7002 CD4+ clone 2; [3]) [pg/mL] | recognition of short peptide by clone 22 (LB1158 CD4+ clone 22) | IFN-γ production by clone 22 (LB1158 CD4+ clone 22; peptide concentration 1 ng/ml) [pg/mL] | IFN-γ production by clone 22 (LB1158 CD4+ clone 22; peptide concentration 3 ng/ml) [pg/mL] | IFN-γ production by clone 22 (LB1158 CD4+ clone 22; peptide concentration 10 ng/ml) [pg/mL] | IFN-γ production by clone 22 (LB1158 CD4+ clone 22; peptide concentration 30 ng/ml) [pg/mL] | IFN-γ production by clone 22 (LB1158 CD4+ clone 22; [1]) [pg/mL] | IFN-γ production by clone 22 (LB1158 CD4+ clone 22; [2]) [pg/mL] | IFN-γ production by clone 22 (LB1158 CD4+ clone 22; [3]) [pg/mL]
1 | LLKYRAREPVTKAE (listed as Homo sapiens) | well recognized | 40 | 303 | 1419 | 2012 | 2918 | 3186 | 3078 | well recognized | 262 | 638 | 1073 | 1651 | 1736 | 1826 | 2225
2 | KYRAREPVTKAE (listed as Homo sapiens) | – | 0 | 0 | 0 | 0 | 0 | 0 | 50 | – | 0 | 5 | 0 | 5 | 16 | 135 | 542
3 | FLLLKYRAREPVT (listed as Homo sapiens) | well recognized | 114 | 370 | 1437 | 2003 | 2951 | 2860 | 3079 | well recognized | 291 | 584 | 1099 | 1635 | 1510 | 1834 | 2183
4 | FLLLKYRAREPV (listed as Homo sapiens) | – | 0 | 4 | 78 | 216 | 821 | 1632 | 2667 | – | 0 | 3 | 13 | 132 | 383 | 746 | 1353
5 | LKYRAREPVTKAE (listed as Homo sapiens) | – | 0 | 0 | 79 | 386 | 1324 | 2544 | 2755 | – | 0 | 25 | 223 | 567 | 1029 | 1475 | 2004
6 | LLLKYRAREPVTKAE (listed as Homo sapiens) | – | 169 | 639 | 2028 | 2532 | 2857 | 3124 | 3033 | – | 718 | 965 | 1440 | 1832 | 1679 | 1739 | 2214
7 | FLLLKYRAREPVTKA (listed as Homo sapiens) | – | 245 | 865 | 1753 | 2713 | 2871 | 3354 | 3314 | – | 283 | 1294 | 1619 | 1775 | 1854 | 1965 | 2180
8 | FLLLKYRAREPVTK (listed as Homo sapiens) | – | 0 | 0 | 0 | 0 | 85 | 0 | 0 | – | 0 | 0 | 1 | 10 | 28 | 115 | 453
9 | FLLLKYRAREP (listed as Homo sapiens) | – | 0 | 0 | 0 | 0 | 85 | 0 | 23 | – | 0 | 0 | 1 | 7 | 6 | 7 | 30
